Experiment [1] has as its target 72 kDa type IV collagenase (Homo sapiens, UniProt P08253). Nature of the experiment: Inhibition of MMP2 (unknown origin) using Mca-Lys-Pro-Leu-GlyLeu-Dpa-Ala-Arg-NH2 as substrate by fluorometric assay.
Experiment [2] has as its target Matrix metalloproteinase-9 (Homo sapiens, UniProt P14780). Briefly: Inhibition of MMP9 (unknown origin) using Mca-Lys-Pro-Leu-GlyLeu-Dpa-Ala-Arg-NH2 as substrate by fluorometric assay.

72 kDa type IV collagenase, sequence (P08253 whole entry): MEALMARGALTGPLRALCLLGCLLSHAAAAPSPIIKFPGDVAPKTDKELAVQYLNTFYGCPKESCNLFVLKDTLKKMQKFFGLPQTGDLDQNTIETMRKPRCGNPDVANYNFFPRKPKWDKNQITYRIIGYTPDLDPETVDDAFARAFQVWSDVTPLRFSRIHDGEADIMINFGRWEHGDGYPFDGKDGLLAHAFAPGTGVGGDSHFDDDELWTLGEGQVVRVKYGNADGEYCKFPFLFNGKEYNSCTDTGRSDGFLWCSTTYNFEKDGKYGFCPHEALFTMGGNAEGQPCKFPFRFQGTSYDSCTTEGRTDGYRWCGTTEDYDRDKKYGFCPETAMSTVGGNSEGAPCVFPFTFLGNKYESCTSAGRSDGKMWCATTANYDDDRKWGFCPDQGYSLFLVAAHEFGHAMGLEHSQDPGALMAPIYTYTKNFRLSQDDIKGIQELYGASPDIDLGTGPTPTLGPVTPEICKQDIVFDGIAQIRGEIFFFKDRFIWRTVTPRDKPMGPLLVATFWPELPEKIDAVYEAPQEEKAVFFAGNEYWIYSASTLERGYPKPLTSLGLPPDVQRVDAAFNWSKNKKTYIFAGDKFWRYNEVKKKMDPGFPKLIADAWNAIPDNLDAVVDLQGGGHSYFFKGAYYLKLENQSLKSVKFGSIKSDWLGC
Matrix metalloproteinase-9, sequence (P14780 whole entry): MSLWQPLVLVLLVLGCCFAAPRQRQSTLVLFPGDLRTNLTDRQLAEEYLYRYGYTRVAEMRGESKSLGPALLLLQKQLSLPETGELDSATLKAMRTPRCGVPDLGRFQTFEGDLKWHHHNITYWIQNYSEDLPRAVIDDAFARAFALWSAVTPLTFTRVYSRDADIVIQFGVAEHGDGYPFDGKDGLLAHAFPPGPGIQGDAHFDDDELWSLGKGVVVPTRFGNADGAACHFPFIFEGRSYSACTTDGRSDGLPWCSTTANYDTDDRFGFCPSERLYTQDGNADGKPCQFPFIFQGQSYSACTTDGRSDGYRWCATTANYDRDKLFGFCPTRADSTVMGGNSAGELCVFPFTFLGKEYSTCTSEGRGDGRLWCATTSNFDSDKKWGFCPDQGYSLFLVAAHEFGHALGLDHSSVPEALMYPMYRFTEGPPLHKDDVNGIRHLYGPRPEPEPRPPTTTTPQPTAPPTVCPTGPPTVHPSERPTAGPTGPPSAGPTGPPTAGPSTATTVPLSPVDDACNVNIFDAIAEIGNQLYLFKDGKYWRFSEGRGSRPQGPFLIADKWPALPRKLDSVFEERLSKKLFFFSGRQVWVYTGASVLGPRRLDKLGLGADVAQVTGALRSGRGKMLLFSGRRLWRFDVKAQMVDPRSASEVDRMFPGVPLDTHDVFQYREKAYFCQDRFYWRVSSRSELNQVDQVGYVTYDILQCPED

For the compound `COc1ccc(S(=O)(=O)N2C[C@H](NC(=O)CCCNC(=O)OC(C)(C)C)C[C@@H]2C(=O)NO)cc1`, the results for the IC50 in experiment [1] and in experiment [2] were 91 nM and 49 nM, respectively.

In the case of `CCCC[C@H](NC(=O)OC(C)(C)C)C(=O)N[C@@H]1C[C@H](C(=O)NO)N(S(=O)(=O)c2ccc(OC)cc2)C1`, the half-inhibitory concentration (IC50) in experiment [1] worked out at 87 nM; in experiment [2], 131 nM.

For `COc1ccc(S(=O)(=O)N2C[C@H](NC(=O)[C@@H](N)CCCN)C[C@@H]2C(=O)NO)cc1`, the half-inhibitory concentration (IC50) in experiment [1] was 15 nM; in experiment [2] it was 154 nM.

For the compound `COc1ccc(S(=O)(=O)N2C[C@H](NC(=O)[C@@H](N)CCCCN)C[C@@H]2C(=O)NO)cc1`, the concentration for half-maximal inhibition (IC50) was determined as 1260 nM in experiment [1] and 5.7 nM in experiment [2].

Regarding `COc1ccc(S(=O)(=O)N2C[C@H](NC(=O)C(C)(C)C)C[C@@H]2C(=O)NO)cc1`, the concentration for half-maximal inhibition (IC50) in experiment [1] amounted to 26 nM; in experiment [2] it was 13 nM.

Regarding `COc1ccc(S(=O)(=O)N2C[C@H](NC(=O)CCCN)C[C@@H]2C(=O)NO)cc1`, the half-maximal inhibitory concentration (IC50) was found to be 302 nM in experiment [1] and 53 nM in experiment [2].

As to `COc1ccc(S(=O)(=O)N2C[C@H](NC(=O)[C@H](CCCCN)NC(=O)OC(C)(C)C)C[C@@H]2C(=O)NO)cc1`, the IC50 in experiment [1] came to 432 nM; in experiment [2], 27 nM.

As for `CCCC[C@H](N)C(=O)N[C@@H]1C[C@H](C(=O)NO)N(S(=O)(=O)c2ccc(OC)cc2)C1`, the IC50 turned out to be 62 nM in experiment [1] and 98 nM in experiment [2].

The compound `COc1ccc(S(=O)(=O)N2CCC[C@@H]2C(=O)NO)cc1` came in with an IC50 in experiment [2] of 22 nM.

For the compound `COc1ccc(S(=O)(=O)N2C[C@H](NC(=O)[C@H](CCCN)NC(=O)OC(C)(C)C)C[C@@H]2C(=O)NO)cc1`, the IC50 was 1320 nM in experiment [1] and 3420 nM in experiment [2].

The IC50 is the concentration needed to halve the response being measured. Read a high IC50 as weaker potency in that assay.

(Values after ChEMBL document CHEMBL4665735, “Discovery of a d-pro-lys peptidomimetic inhibitor of MMP9: Addressing the gelatinase selectivity beyond S1' subsite” (Bioorg Med Chem Lett, 2020).)
